Results published in patent publication US6620831B2, “Indazoles substituted with 1,1-dioxoisothiazolidine useful as inhibitors of cell proliferation” (LG Life Sciences Ltd., priority 2000, dated 2003).

Target: T1, CDK2/cyclin A (Homo sapiens, UniProt P24941)
T1 construct: made in house; host or cells: insect ('worm') cells co-infected with baculoviruses
Assay: CDK2 inhibitory activity (CDK2/cyclin A, [gamma-32P] ATP, histon H1 or Rb protein substrate)
Assay type: biochemical
Settings: first IC50 column (c1) of Table 1
Excerpt: CDK2 enzyme was obtained from either extract from the worm cell co-infected with baculovirus which expresses a CDK2 gene and baculovirus which expresses a cyclin A gene, or active enzyme purified therefrom. CDK4 was also obtained from either extract from the worm cell co-infected with baculovirus which expresses a CDK4 gene and baculovirus which expresses a cyclin D1 gene. As substrates, histon H1 or Rb protein was used for CDK2, and Rb protein for CDK4. The radioactive activities in substrates were determined by reacting compounds diluted with each concentration with a proper quantity of CDK2/cyclin A or CDK4/cyclin D1 and substrate protein, and [gamma-32P labeled] ATP, and then separating the substrates.
Inhibitory abilities of inhibitors according to the present invention for each enzyme activity were expressed as IC50 values, which were determined in accordance with the method as described above.

Row | SMILES | IC50 [nM]
1 | CN1CCN(S(=O)(=O)c2ccc(CC(=O)Nc3n[nH]c4ccc(N5CCCS5(=O)=O)cc34)cc2)CC1 [Compound 40, N-[5-(1,1-dioxo-1λ^6-isothiazolidin-2-yl)-1H-indazol-3-yl]-2-4-[(4-methyl-1-piperazinyl)sulfonyl]phenylacetamide] | < 1000
2 | O=C(Cn1cnc2ccccc21)Nc1n[nH]c2ccc(N3CCCS3(=O)=O)cc12 [Compound 41, 2-(1H-benzimidazol-1-yl)-N-[5-(1,1-dioxo-1λ^6-isothiazolidin-2-yl)-1H-indazol-3-yl]acetamide] | < 50
3 | CCOc1ccc(CC(=O)Nc2n[nH]c3ccc(N4CCCS4(=O)=O)cc23)cc1 [Compound 42, N-[5-(1,1-dioxo-1λ^6-isothiazolidin-2-yl)-1H-indazol-3-yl]-2-(4-ethoxyphenyl)acetamide] | < 50
4 | O=C(Cc1ccc(CN2CCOCC2)cc1)Nc1n[nH]c2ccc(N3CCCS3(=O)=O)cc12 [Compound 43, N-[5-(1,1-dioxo-1λ^6-isothiazolidin-2-yl)-1H-indazol-3-yl]-2-[4-(4-morpholinylmethyl)phenyl]acetamide] | < 100
5 | O=C(Cc1ccc([N+](=O)[O-])cc1)Nc1n[nH]c2ccc(N3CCCS3(=O)=O)cc12 [Compound 45, N-[5-(1,1-dioxo-1λ^6-isothiazolidin-2-yl)-1H-indazol-3-yl]-2-(4-nitrophenyl)acetamide] | < 50
6 | O=C(Cc1ccc(Cn2ccnc2)cc1)Nc1n[nH]c2ccc(N3CCCS3(=O)=O)cc12 [Compound 46, N-[5-(1,1-dioxo-1λ^6-isothiazolidin-2-yl)-1H-indazol-3-yl]-2-[4-(1H-imidazole-1-ylmethyl)phenyl]acetamide] | < 1000
7 | O=C(Cn1cnc(-c2ccccc2)c1)Nc1n[nH]c2ccc(N3CCCS3(=O)=O)cc12 [Compound 47, N-[5-(1,1-dioxo-1λ^6-isothiazolidin-2-yl)-1H-indazol-3-yl]-2-(4-phenyl-1H-imidazol-1-yl)acetamide] | < 50
8 | O=C(CN1CCc2ccccc2C1)Nc1n[nH]c2ccc(N3CCCS3(=O)=O)cc12 [Compound 49, 2-[3,4-dihydro-2(1H)-isoquinolinyl]-N-[5-(1,1-dioxo-1λ^6-isothiazolidin-2-yl)-1H-indazol-3-yl]acetamide] | < 1000
9 | COc1ccc(N2CCN(CC(=O)Nc3n[nH]c4ccc(N5CCCS5(=O)=O)cc34)CC2)cc1 [Compound 51, N-[5-(1,1-dioxo-1λ^6-isothiazolidin-2-yl)-1H-indazol-3-yl]-2-[4-(4-methoxyphenyl)-1-piperazinyl]acetamide] | < 10000
10 | CCOc1ccccc1N1CCN(CC(=O)Nc2n[nH]c3ccc(N4CCCS4(=O)=O)cc23)CC1 [Compound 52, N-[5-(1,1-dioxo-1λ^6-isothiazolidin-2-yl)-1H-indazol-3-yl]-2-[4-(2-ethoxyphenyl)-1-piperazinyl]acetamide] | < 10000
11 | CC(=O)c1ccc(N2CCN(CC(=O)Nc3n[nH]c4ccc(N5CCCS5(=O)=O)cc34)CC2)cc1 [Compound 53, 2-[4-(4-acetylphenyl)-1-piperazinyl]-N-[5-(1,1-dioxo-1λ^6-isothiazolidin-2-yl)-1H-indazol-3-yl]acetamide] | < 10000
12 | O=C(Cc1ccc(Oc2ccccc2)cc1)Nc1n[nH]c2ccc(N3CCCS3(=O)=O)cc12 [Compound 54, N-[5-(1,1-dioxo-1λ^6-isothiazolidin-2-yl)-1H-indazol-3-yl]-2-(4-phenoxyphenyl)acetamide] | < 100
13 | O=C(Nc1n[nH]c2ccc(N3CCCS3(=O)=O)cc12)C1(c2ccccc2)CCCC1 [Compound 55, N-[5-(1,1-dioxo-1λ^6-isothiazolidin-2-yl)-1H-indazol-3-yl]-1-phenylcyclopentanecarboxamide] | < 100000
14 | O=C(Nc1n[nH]c2ccc(N3CCCS3(=O)=O)cc12)C(c1ccccc1)C1CCCC1 (centres unmarked) [Compound 56, 2-cyclopentyl-N-[5-(1,1-dioxo-1λ^6-isothiazolidin-2-yl)-1H-indazol-3-yl]-2-phenylacetamide] | < 100000
15 | CCC(C(=O)Nc1n[nH]c2ccc(N3CCCS3(=O)=O)cc12)c1ccccc1 (centres unmarked) [Compound 57, N-[5-(1,1-dioxo-1λ^6-isothiazolidin-2-yl)-1H-indazol-3-yl]-2-phenylbutanamide] | < 100000
16 | CC(C)(C)OC(=O)Nc1nc(CC(=O)Nc2n[nH]c3ccc(N4CCCS4(=O)=O)cc23)cs1 [Compound 58, t-butyl 4-(2-[5-(1,1-dioxo-1λ^6-isothiazolidin-2-yl)-1H-indazol-3-yl]amino-2-oxoethyl)-1,3-thiazol-2-ylcarbamate] | < 100
17 | CCOCCOCCOc1ccc(CC(=O)Nc2n[nH]c3ccc(N4CCCS4(=O)=O)cc23)cc1 [Compound 59, N-[5-(1,1-dioxo-1λ^6-isothiazolidin-2-yl)-1H-indazol-3-yl]-2-4-[2-(2-ethoxyethoxy)ethoxy]phenylacetamide] | < 100
18 | Nc1nc(CC(=O)Nc2n[nH]c3ccc(N4CCCS4(=O)=O)cc23)cs1 [Compound 60, 2-(2-amino-1,3-thiazol-4-yl)-N-[5-(1,1-dioxo-1λ^6-isothiazolidin-2-yl)-1H-indazol-3-yl]acetamide] | < 500
19 | O=C(Cn1cnc(-c2ccc(Br)cc2)c1)Nc1n[nH]c2ccc(N3CCCS3(=O)=O)cc12 [Compound 61, 2-[4-(4-bromophenyl)-1H-imidazol-1-yl]-N-[5-(1,1-dioxo-1λ^6-isothiazolidin-2-yl)-1H-indazol-3-yl]acetamide] | < 100
20 | O=C(Cn1cnc(-c2ccc3ccccc3c2)c1)Nc1n[nH]c2ccc(N3CCCS3(=O)=O)cc12 [Compound 62, N-[5-(1,1-dioxo-1λ^6-isothiazolidin-2-yl)-1H-indazol-3-yl]-2-[4-(2-naphthyl)-1H-imidazol-1-yl]acetamide] | < 50

The next lines start with the values.

Row | IC50 [nM] | SMILES
21 | < 500 | O=C(Cn1cnc(-c2ccc(-c3ccccc3)cc2)c1)Nc1n[nH]c2ccc(N3CCCS3(=O)=O)cc12 [Compound 63, 2-(4-[1,1′-biphenyl]-4-yl-1H-imidazol-1-yl)-N-[5-(1,1-dioxo-1λ^6-isothiazolidin-2-yl)-1H-indazol-3-yl]acetamide]
22 | < 500 | CCNc1nc(CC(=O)Nc2n[nH]c3ccc(N4CCCS4(=O)=O)cc23)cs1 [Compound 64, N-[5-(1,1-dioxo-1λ^6-isothiazolidin-2-yl)-1H-indazol-3-yl]-2-[2-(ethylamino)-1,3-thiazol-4-yl]acetamide]
23 | < 500 | CCN(CC)c1nc(CC(=O)Nc2n[nH]c3ccc(N4CCCS4(=O)=O)cc23)cs1 [Compound 65, 2-[2-(diethylamino)-1,3-thiazol-4-yl]-N-[5-(1,1-dioxo-1λ^6-isothiazolidin-2-yl)-1H-indazol-3-yl]acetamide]
24 | < 100 | COCCOCCOCCOc1ccc(CC(=O)Nc2n[nH]c3ccc(N4CCCS4(=O)=O)cc23)cc1 [Compound 66, N-[5-(1,1-dioxo-1λ^6-isothiazolidin-2-yl)-1H-indazol-3-yl]-2-(4-2-[2-(2-methoxyethoxy)ethoxy]ethoxyphenyl)acetamide]
25 | < 50 | CCOc1ccc(CC(=O)Nc2n[nH]c3ccc(N4CCCS4(=O)=O)cc23)cc1[N+](=O)[O-] [Compound 67, N-[5-(1,1-dioxo-1λ^6-isothiazolidin-2-yl)-1H-indazol-3-yl]-2-(4-ethoxy-3-nitrophenyl)acetamide]
26 | < 100 | Cc1ccccc1CC(=O)Nc1n[nH]c2ccc(N3CCCS3(=O)=O)cc12 [Compound 68, N-[5-(1,1-dioxo-1λ^6-isothiazolidin-2-yl)-1H-indazol-3-yl]-2-(2-methylphenyl)acetamide]
27 | < 500 | CCNc1cccc(CC(=O)Nc2n[nH]c3ccc(N4CCCS4(=O)=O)cc23)c1 [Compound 69, N-[5-(1,1-dioxo-1λ^6-isothiazolidin-2-yl)-1H-indazol-3-yl]-2-[3-(ethylamino)phenyl]acetamide]
28 | < 500 | CCN(CC)c1cccc(CC(=O)Nc2n[nH]c3ccc(N4CCCS4(=O)=O)cc23)c1 [Compound 70, 2-[3-(diethylamino)phenyl]-N-[5-(1,1-dioxo-1λ^6-isothiazolidin-2-yl)-1H-indazol-3-yl]acetamide]
29 | < 50 | COc1cc(CC(=O)Nc2n[nH]c3ccc(N4CCCS4(=O)=O)cc23)cc(OC)c1 [Compound 71, 2-(3,5-dimethoxyphenyl)-N-[5-(1,1-dioxo-1λ^6-isothiazolidin-2-yl)-1H-indazol-3-yl]acetamide]
30 | < 50 | CCNc1ccc(CC(=O)Nc2n[nH]c3ccc(N4CCCS4(=O)=O)cc23)cc1 [Compound 72, N-[5-(1,1-dioxo-1λ^6-isothiazolidin-2-yl)-1H-indazol-3-yl]-2-[4-(ethylamino)phenyl]acetamide]
31 | < 50 | CCN(CC)c1ccc(CC(=O)Nc2n[nH]c3ccc(N4CCCS4(=O)=O)cc23)cc1 [Compound 73, 2-[4-(diethylamino)phenyl]-N-[5-(1,1-dioxo-1λ^6-isothiazolidin-2-yl)-1H-indazol-3-yl]acetamide]
32 | < 100 | CCOc1ccc(CC(=O)Nc2n[nH]c3ccc(N4CCCS4(=O)=O)cc23)cc1Cl [Compound 74, 2-(3-chloro-4-ethoxyphenyl)-N-[5-(1,1-dioxo-1λ^6-isothiazolidin-2-yl)-1H-indazol-3-yl]acetamide]
33 | < 100 | NCCOc1ccc(CC(=O)Nc2n[nH]c3ccc(N4CCCS4(=O)=O)cc23)cc1 [Compound 75, 2-[4-(2-aminoethoxy)phenyl]-N-[5-(1,1-dioxo-1λ^6-isothiazolidin-2-yl)-1H-indazol-3-yl]acetamide]
34 | < 10000 | CC(=O)Nc1nc(CC(=O)Nc2n[nH]c3ccc(N4CCCS4(=O)=O)cc23)cs1 [Compound 76]
35 | < 10000 | O=C(Cc1csc(NCc2ccc(OCc3ccccc3)cc2)n1)Nc1n[nH]c2ccc(N3CCCS3(=O)=O)cc12 [Compound 77, 2-(2-[4-(benzyloxy)benzyl]amino-1,3-thiazol-4-yl)-N-[5-(1,1-dioxo-1λ^6-isothiazolidin-2-yl)-1H-indazol-3-yl]acetamide]
